Reference: the NIST ThermoML archive (doi:10.1016/j.jct.2008.05.014)

Assay: xn = mol fraction of the nth substance listed
Details: Liquid; for speed of sound: Pulse-echo method

CCCCCCCCCCCC [dodecane] + CCCCCCC
Details | mass density [kg/m3] | speed of sound [m/s]
292.85 K, 15200 kPa, x2 = 0.4999 | – | 1334.1
292.85 K, 15200 kPa, x2 = 0.97 | – | 1263.4
292.85 K, 30390 kPa, x2 = 0.4999 | – | 1411.6
292.85 K, 30390 kPa, x2 = 0.97 | – | 1348.3
292.85 K, 45590 kPa, x2 = 0.4999 | – | 1480.8
292.85 K, 60790 kPa, x2 = 0.4999 | – | 1543.7
292.85 K, 60790 kPa, x2 = 0.97 | – | 1490.4
292.85 K, 75990 kPa, x2 = 0.4999 | – | 1602.4
292.85 K, 75990 kPa, x2 = 0.97 | – | 1552
292.85 K, 91180 kPa, x2 = 0.4999 | – | 1656.6
292.85 K, 91180 kPa, x2 = 0.97 | – | 1609.5
292.85 K, 101320 kPa, x2 = 0.4999 | – | 1690.5
292.86 K, 15200 kPa, x2 = 0.5003 | – | 1333.8
292.86 K, 15200 kPa, x2 = 0.9391 | – | 1268.7
292.86 K, 30390 kPa, x2 = 0.1014 | – | 1449.6
292.86 K, 30390 kPa, x2 = 0.5003 | – | 1411.4
292.86 K, 30410 kPa, x2 = 0.9391 | – | 1352.9
292.86 K, 45590 kPa, x2 = 0.1014 | – | 1516.2
292.86 K, 45590 kPa, x2 = 0.5003 | – | 1480.8
292.86 K, 45590 kPa, x2 = 0.9391 | – | 1427.3
292.86 K, 45590 kPa, x2 = 0.97 | – | 1423.1
292.86 K, 60790 kPa, x2 = 0.1014 | – | 1577
292.86 K, 60790 kPa, x2 = 0.5003 | – | 1543.8
292.86 K, 60790 kPa, x2 = 0.9391 | – | 1494.1
292.86 K, 75990 kPa, x2 = 0.1014 | – | 1633.6
292.86 K, 75990 kPa, x2 = 0.5003 | – | 1602.5
292.86 K, 75990 kPa, x2 = 0.9391 | – | 1555.3
292.86 K, 91180 kPa, x2 = 0.1014 | – | 1686.1
292.86 K, 91180 kPa, x2 = 0.5003 | – | 1656.8
292.86 K, 91180 kPa, x2 = 0.9391 | – | 1612.7
292.86 K, 101320 kPa, x2 = 0.1014 | – | 1719.2
292.86 K, 101320 kPa, x2 = 0.9391 | – | 1647.3
292.86 K, 101320 kPa, x2 = 0.97 | – | 1645.4
292.87 K, 15200 kPa, x2 = 0 | – | 1384.9
292.87 K, 15200 kPa, x2 = 0.1014 | – | 1375.7
292.87 K, 15200 kPa, x2 = 0.3007 | – | 1355.3
292.87 K, 15200 kPa, x2 = 0.7007 | – | 1306.2
292.87 K, 30390 kPa, x2 = 0 | – | 1457.9
292.87 K, 30390 kPa, x2 = 0.3007 | – | 1430.9
292.87 K, 30390 kPa, x2 = 0.7007 | – | 1386.2
292.87 K, 45590 kPa, x2 = 0 | – | 1524.1
292.87 K, 45590 kPa, x2 = 0.3007 | – | 1498.8
292.87 K, 45590 kPa, x2 = 0.7007 | – | 1457.9
292.87 K, 60790 kPa, x2 = 0 | – | 1584.5
292.87 K, 60790 kPa, x2 = 0.3007 | – | 1560.6
292.87 K, 60790 kPa, x2 = 0.7007 | – | 1522.8
292.87 K, 75990 kPa, x2 = 0 | – | 1640.7
292.87 K, 75990 kPa, x2 = 0.3007 | – | 1618.5
292.87 K, 75990 kPa, x2 = 0.7007 | – | 1582.4
292.87 K, 91180 kPa, x2 = 0 | – | 1692.8
292.87 K, 91180 kPa, x2 = 0.3007 | – | 1671.5
292.87 K, 91180 kPa, x2 = 0.7007 | – | 1638
292.87 K, 101320 kPa, x2 = 0 | – | 1725.8
292.87 K, 101320 kPa, x2 = 0.3007 | – | 1705.1
292.87 K, 101320 kPa, x2 = 0.5003 | – | 1691
292.87 K, 101320 kPa, x2 = 0.7007 | – | 1672.6
292.87 K, 101320 kPa, x2 = 0.8496 | – | 1658.6
292.88 K, 15200 kPa, x2 = 0.8496 | – | 1284
292.88 K, 75990 kPa, x2 = 0.8496 | – | 1566.3
292.89 K, 101 kPa, x2 = 0 | – | 1299.5
292.89 K, 101 kPa, x2 = 0.3002 | – | 1267.5
292.89 K, 101 kPa, x2 = 0.3996 | – | 1255
292.89 K, 101 kPa, x2 = 0.6 | – | 1226.8
292.89 K, 101 kPa, x2 = 0.7002 | – | 1210.7
292.89 K, 101 kPa, x2 = 0.8995 | – | 1174.4
292.89 K, 30390 kPa, x2 = 0.8496 | – | 1366.5
292.89 K, 45590 kPa, x2 = 0.8496 | – | 1439.7
292.89 K, 60790 kPa, x2 = 0.8496 | – | 1505.9
292.89 K, 91180 kPa, x2 = 0.8496 | – | 1623.3
292.9 K, 101 kPa, x2 = 0.8 | – | 1193.4
292.91 K, 101 kPa, x2 = 0.1007 | – | 1289.6
292.91 K, 101 kPa, x2 = 0.2001 | – | 1279
292.91 K, 101 kPa, x2 = 0.5002 | – | 1241.3
293.15 K, 101 kPa, x2 = 0 | 748.921 | –
293.15 K, 101 kPa, x2 = 0.0991 | 744.788 | –
293.15 K, 101 kPa, x2 = 0.2008 | 740.186 | –
293.15 K, 101 kPa, x2 = 0.2998 | 735.319 | –
293.15 K, 101 kPa, x2 = 0.3996 | 729.97 | –
293.15 K, 101 kPa, x2 = 0.5 | 724.072 | –
293.15 K, 101 kPa, x2 = 0.6 | 717.632 | –
293.15 K, 101 kPa, x2 = 0.7005 | 710.489 | –
293.15 K, 101 kPa, x2 = 0.7995 | 702.66 | –
293.15 K, 101 kPa, x2 = 0.8486 | 698.428 | –
293.15 K, 101 kPa, x2 = 0.8988 | 693.851 | –
293.15 K, 101 kPa, x2 = 0.9498 | 688.947 | –
298.14 K, 30390 kPa, x2 = 0.97 | – | 1329.4
298.14 K, 30410 kPa, x2 = 0.9391 | – | 1333.2
298.14 K, 45590 kPa, x2 = 0.9391 | – | 1408.7
298.14 K, 45590 kPa, x2 = 0.97 | – | 1405.4
298.14 K, 60790 kPa, x2 = 0.9391 | – | 1476.6
298.14 K, 60790 kPa, x2 = 0.97 | – | 1473.9
298.14 K, 75990 kPa, x2 = 0.97 | – | 1536.2
298.14 K, 91180 kPa, x2 = 0.9391 | – | 1596.4
298.14 K, 91180 kPa, x2 = 0.97 | – | 1594.1
298.14 K, 101320 kPa, x2 = 0.9391 | – | 1632.6
298.14 K, 101320 kPa, x2 = 0.97 | – | 1630.6
298.15 K, 101 kPa, x2 = 0 | 745.269 | –
298.15 K, 101 kPa, x2 = 0.0991 | 741.128 | –
298.15 K, 101 kPa, x2 = 0.2008 | 736.497 | –
298.15 K, 101 kPa, x2 = 0.2998 | 731.58 | –
298.15 K, 101 kPa, x2 = 0.5 | 720.233 | –
298.15 K, 101 kPa, x2 = 0.7005 | 706.501 | –
298.15 K, 101 kPa, x2 = 0.7995 | 698.598 | –
298.15 K, 101 kPa, x2 = 0.8486 | 694.34 | –
298.15 K, 101 kPa, x2 = 0.8988 | 689.718 | –
298.15 K, 101 kPa, x2 = 0.9498 | 684.775 | –
298.15 K, 15200 kPa, x2 = 0.5003 | – | 1314.6
298.15 K, 15200 kPa, x2 = 0.9391 | – | 1247.1
298.15 K, 15200 kPa, x2 = 0.97 | – | 1242.9
298.15 K, 30390 kPa, x2 = 0.4999 | – | 1393.4
298.15 K, 30390 kPa, x2 = 0.5003 | – | 1393.3
298.15 K, 45590 kPa, x2 = 0.1014 | – | 1499.1
298.15 K, 45590 kPa, x2 = 0.4999 | – | 1464
298.15 K, 45590 kPa, x2 = 0.5003 | – | 1464.1
298.15 K, 45590 kPa, x2 = 0.7007 | – | 1440.8
298.15 K, 60790 kPa, x2 = 0.1014 | – | 1560.5
298.15 K, 60790 kPa, x2 = 0.3007 | – | 1544.4
298.15 K, 60790 kPa, x2 = 0.4999 | – | 1527.7
298.15 K, 60790 kPa, x2 = 0.5003 | – | 1528
298.15 K, 60790 kPa, x2 = 0.7007 | – | 1506.5
298.15 K, 75990 kPa, x2 = 0.1014 | – | 1618.2
298.15 K, 75990 kPa, x2 = 0.4999 | – | 1586.8
298.15 K, 75990 kPa, x2 = 0.5003 | – | 1587
298.15 K, 75990 kPa, x2 = 0.7007 | – | 1566.5
298.15 K, 75990 kPa, x2 = 0.9391 | – | 1538.7
298.15 K, 91180 kPa, x2 = 0.1014 | – | 1671
298.15 K, 91180 kPa, x2 = 0.4999 | – | 1641.7
